# From patent US8969332B2, “Aryloxy dihalopropenyl ether compounds and uses thereof” (Sinochem Corporation, priority 2011, dated 2015)
# How the values were obtained:
# diamond back moth [1] = assay: Insecticidal activity against diamond back moth in greenhouse (airbrush spraying of cabbage leaf discs); type: in vivo; conditions: Plutella xylostella, foliar, 72 h, parallel determination, read-out: Mortality of diamond back moth (%)
# Experimental: (§1) Compounds were dissolved in mixed solvent (acetone:methanol=1:1), and diluted to required concentration with water containing 0.1% of tweed 80.
# The method of spraying by airbrush: The cabbage leaves were made into plates of 2 cm diameter by use of punch. A test solution (0.5 ml) was sprayed by airbrush at the pressure of 0.7 kg/cm^2 to both sides of every plate. 10 Second instar larvae were put into the petri-dishes after the leaf disc air-dried and 3 replicates were set for each treatment. Then the insects were maintained in observation room (25° C., 60˜70% R.H.), Scores were conducted and mortalities were calculated after 72 h.
# armyworm = assay: Insecticidal activity against armyworm in greenhouse (airbrush spraying of corn leaf discs); type: in vivo; conditions: Mythimna separata, foliar, 72 h, parallel determination
# Experimental: as §1
# The method of spraying by airbrush: The corn leaves were made into plates of 2 cm diameter by use of punch. A test solution (0.5 ml) was sprayed by airbrush at the pressure of 0.7 kg/cm^2 to both sides of every plate. 10 Second instar larvae were put into the Petri-dishes after the leaf disc air-dried and 3 replicates were set thr each treatment. Then the insects were maintained in observation room (25° C., 60˜70% R.H.). Scores were conducted and mortalities were calculated after 72 h.
# housefly = assay: Insecticidal activity against housefly (diet incorporation test); type: in vivo; conditions: Musca domestica, 72 h, 3rd instar larvae, read-out: Mortality of housefly (%)
# Experimental: Diet Incorporation Tests: the test compound was dissolved with 90% acetone to obtain the mother liquor after weigh accurately with an electronic balance. The required concentration solution was got by diluting to the mother liquor with a certain concentration milk powder solution according to the designed doses in the experiment. Then, the diluted concentration solution was evenly put into the petri dishes with diameter of 6 cm inside which filter paper was placed by using a transferring-liquid gun ([…], solution each petri dish). Finally the 3rd instars of larvae were put into petri dishes with 10 each petri dish, and 3 replicates were set for each treatment. Then the insects were maintained in observation room (25° C., 60˜70% R.H.). Scores were conducted and mortalities were calculated after 72 h.
# beet armyworm = assay: Field trial against beet armyworm on cabbage; type: in vivo, Laphygma exigua
# Experimental: The trial was carried out in rain shelter area of experimental field of Wuhan vegetable research institute, the test crop is cabbage (variety: Jingfeng NO. 1). The dosage of the invention compound 1 (Example 11, 10% EC, same as below) are 75, 105, 150 g a.i./hm^2. and the comparative agent pyridalyl (10% EC, commercially available, same as below) is 105 g a.i./hm^2. The agent was applied on 9 Oct. 2011. The application tool is Linong 16HD-400 type backpack spray. Evenly spraying to whole cabbage which is in rosette stage was conducted. Beet armyworm is mainly larvae. The plot area is 25 m^2 and 4 replicates and randomized block arrangement were set. The amount of spray liquid is 750 L/hm^2. It was sunny and there was no wind, with the highest temperature of 28° C. and the lowest of 15° C. on the day of the application. Chosen 10 plants from each plot and scored the larvae at different instars at fixing time. The base number was investigated before treatment. The number of living larvae was counted after 1 day, 3 days, 7 days and 14 days respectively after application and control efficacy was calculated.
# (§2) Calculation Method: Decrease rate of insects (%)=(the number of insects before application−the number of insects after application) the number of insects before application×100 Control efficacy (%)=(decrease rate of insects in treated area decrease rate of insects in blank comparative area)/(100−decrease rate of insects in blank comparative area)×100
# diamond back moth [2] = assay: Field trial against diamond back moth on cabbage; type: in vivo, Plutella xylostella
# Experimental: as §2
# The trial was carried out in the test filed of Shenyang Research Institute of Chemical industry Ltd. The trial crop is cabbage (Variety: Zhonggan NO 8.). The dosage of the compound 1 are 75, 105, 150 g a.i./hm^2 and comparative agent pyridalyl is 105 g a.i./hm^2. The agent was applied once on 13 Jun. 2011. The application tool is Shandongweishi WS-16P type backpack manual sprayer. Evenly spraying to whole cabbage which is in rosette stage was conducted. Diamond back moth is originated at the peak time. The plot area is 10 m^2, 3 replicates and randomized block arrangement were set. The amount of spray liquid is 750 L/hm^2. It was sunny with the highest temperature of 29° C., and the lowest of 17° C. on the day of the application of the spray. The methods of investigation and calculation are the same as Example 13.
# [3] = test system: cabbage butterfly (Pierisrapae Linne); assay: Field trial against cabbage butterfly; type: in vivo
# Experimental: as §2
# The trial was carried out in a farmer's vegetable field in Xiangcheng District Suzhou City. The variety of the cabbage is Xinxia 50. The dosage of the compound 1 are 75, 105, 150 g a.i./hm^2 and the comparative agent pyridalyl is 105 g a.i./hm^2. The agent was applied on 26 May 2011. The application tool is Singaporean Linong HD-400 type backpack spray. Evenly spraying to whole cabbage which is at vegetative growth phase was conducted, Cabbage butterfly is at a peak time of 1-3 instars of larvae. The plot area is 15 m^2, 4 replicates and randomized block arrangement were set. The amount of spray liquid is 750 L/hm^2. It was from sunny to cloudy with the highest temperature of 22.6° C., and the lowest of 17.8° C. on the day of the application of the spray. Chosen 10 plants from each plot and scored the larvae at different instars at fixing time. The base number was investigated before treatment. The number of living larvae was counted after 1 day, 4 days, 7 days and 12 days respectively after application and control efficacy was calculated.
# Calculation method: the same as Example 13.
# [4] = 75 g a.i./hm^2, 10% EC, 1 day after treatment
# [5] = 75 g a.i./hm^2, 10% EC, 3 days after treatment
# [6] = 75 g a.i./hm^2, 10% EC, 7 days after treatment
# [7] = 105 g a.i./hm^2, 10% EC, 1 day after treatment
# [8] = 105 g a.i./hm^2, 10% EC, 3 days after treatment
# [9] = 105 g a.i./hm^2, 10% EC, 7 days after treatment
# [10] = 150 g a.i./hm^2, 10% EC, 1 day after treatment
# [11] = 150 g a.i./hm^2, 10% EC, 3 days after treatment
# [12] = 150 g a.i./hm^2, 10% EC, 7 days after treatment
smiles,measurement,setting,value
FC(F)(F)c1ccc(Oc2ccc(OCCCOc3c(Cl)cc(OCC=C(Cl)Cl)cc3Cl)cc2)nc1 [Compound 1],mortality at 6.25 µg/mL,diamond back moth [1]; 6.25 mg/L,100%
same,mortality at 25 µg/mL,diamond back moth [1]; 25 mg/L,100%
same,mortality at 50 µg/mL,diamond back moth [1]; 50 mg/L,100%
same,mortality at 10 µg/mL,armyworm; 10 mg/L,100%
same,mortality at 100 µg/mL,armyworm; 100 mg/L,100%
same,mortality at 10 µg/mL,housefly; 10 mg/L,66.7%
same,mortality at 20 µg/mL,housefly; 20 mg/L,100%
same,Control efficiency (%),beet armyworm; [4],63.18%
same,Control efficiency (%),beet armyworm; [5],86.14%
same,Control efficiency (%),beet armyworm; [6],80.51%
same,Control efficiency (%),"beet armyworm; 75 g a.i./hm^2, 10% EC, 14 days after treatment",73.51%
same,Control efficiency (%),beet armyworm; [7],69.20%
same,Control efficiency (%),beet armyworm; [8],92.30%
same,Control efficiency (%),beet armyworm; [9],86.19%
same,Control efficiency (%),"beet armyworm; 105 g a.i./hm^2, 10% EC, 14 days after treatment",83.69%
same,Control efficiency (%),beet armyworm; [10],71.17%
same,Control efficiency (%),beet armyworm; [11],94.09%
same,Control efficiency (%),beet armyworm; [12],90.45%
same,Control efficiency (%),"beet armyworm; 150 g a.i./hm^2, 10% EC, 14 days after treatment",88.42%
same,Control efficacy (%),diamond back moth [2]; [4],86.0%
same,Control efficacy (%),diamond back moth [2]; [5],98.7%
same,Control efficacy (%),diamond back moth [2]; [6],97.6%
same,Control efficacy (%),diamond back moth [2]; [7],93.4%
same,Control efficacy (%),diamond back moth [2]; [8],97.0%
same,Control efficacy (%),diamond back moth [2]; [9],97.8%
same,Control efficacy (%),diamond back moth [2]; [10],90.4%
same,Control efficacy (%),diamond back moth [2]; [11],97.9%
same,Control efficacy (%),diamond back moth [2]; [12],97.9%
same,Control efficiency (%),[3]; [4],40.4%
same,Control efficiency (%),"[3]; 75 g a.i./hm^2, 10% EC, 4 day after treatment",84.1%
same,Control efficiency (%),"[3]; 75 g a.i./hm^2, 10% EC, 7 day after treatment",86.7%
same,Control efficiency (%),"[3]; 75 g a.i./hm^2, 10% EC, 12 days after treatment",81.2%
same,Control efficiency (%),[3]; [7],44.0%
same,Control efficiency (%),"[3]; 105 g a.i./hm^2, 10% EC, 4 day after treatment",87.9%
same,Control efficiency (%),"[3]; 105 g a.i./hm^2, 10% EC, 7 day after treatment",92.6%
same,Control efficiency (%),"[3]; 105 g a.i./hm^2, 10% EC, 12 days after treatment",85.0%
same,Control efficiency (%),[3]; [10],45.2%
same,Control efficiency (%),"[3]; 150 g a.i./hm^2, 10% EC, 4 day after treatment",89.6%
same,Control efficiency (%),"[3]; 150 g a.i./hm^2, 10% EC, 7 day after treatment",92.8%
same,Control efficiency (%),"[3]; 150 g a.i./hm^2, 10% EC, 12 days after treatment",85.4%
